Where two headings read alike, the source gives them in different places.
Tests used:
[1] = Thioglo-1 fluorescent labeling of sulfhydryl groups, cysteine; settings: 50 μM drug, 37° C., 3 h, 20 mM Tris pH 8.0
Method: (§1) The ability of drugs to label sulfhydryl groups of cysteine, glutathione, human serum albumin (HSA) and biomolecules in K562 cells was determined spectrofluorometrically using Thioglo-1, a maleimide reagent that reacts quickly with the sulfhydryl groups to produce highly fluorescent covalent adducts. Drugs that react with sulfhydryl groups block the formation of fluorescent adducts when sulfhydryl reactant is treated with drugs prior to Thioglo-1 treatment. Cysteine (10 μM), glutathione (10 μM), human serum albumin (10 μM), or K562 cell homogenate (6×10^5 cells) in 20 mM Tris pH 8.0, was treated with 1μl of drug (or not) in DMSO at 50 μM reaction concentration at 37° C. for 3 h, followed by the addition of Thioglo-1 (22 μM). The fluorescence was measured in a Fluostar Galaxy (BMG, Durham, N.C.) fluorescence plate reader using an excitation wavelength of 380 nm and an emission wavelength of 520 nm, and the percentage inhibition of fluorescent labeling was obtained using the following equation: % Inhibition=[(1−(Fdrug−Fbackground)/Fdmso]×100, where Fdrug is the fluorescent value for Thioglo-1 treatment of biomolecules pretreated with drug, Fbackground is the fluorescent value for sample containing Thioglo-1 in Tris buffer only, and Fdmso is the fluorescent value for Thioglo-1 treatment of biomolecules pretreated with DMSO solvent only.

[2] = Thioglo-1 fluorescent labeling of sulfhydryl groups, glutathione; settings: 50 μM drug, 37° C., 3 h, 20 mM Tris pH 8.0
Method: as §1

[3] = target: T1, human serum albumin (HSA) (Homo sapiens, UniProt P02768); experiment: Thioglo-1 fluorescent labeling of sulfhydryl groups, human serum albumin; format: biochemical; settings: 50 μM drug, HSA 10 μM, 37° C., 3 h, 20 mM Tris pH 8.0
Method: as §1

K562 cell homogenate = experiment: Thioglo-1 fluorescent labeling of sulfhydryl groups, K562 cell homogenate; format: biochemical, human; settings: 50 μM drug, 6×10^5 cells, 37° C., 3 h, 20 mM Tris pH 8.0
Method: as §1

human topoisomerase IIα = target: T2, human topoisomerase IIα (Homo sapiens, UniProt P11388); experiment: Topoisomerase IIα decatenation inhibition assay; format: biochemical; settings: K562 cells nuclear extract, kDNA decatenation; for inhibition at 3 µM / inhibition at 30 µM: read-out: % Inhibition of topoisomerase II catalytic activity
T2 construct: 300 ng K562 cells nuclear extract, the amount that gave 80% decatenation; endogenous in cells; host or cells: K562 cells nuclear extract
Method: The catalytic inhibition of human topoisomerase IIα by a drug was measured by the ATP-dependent decatenation of kDNA (Topogen, Columbus, Ohio) into minicircles of DNA as we previously described (Hasinoff 1995 QSAR ICRF-187). The 20 μl reaction mixture contained 0.5 mM ATP, 50 mM Tris-HCl (pH 8.0), 120 mM KCl, 10 mM MgCl2, 30 μg/ml bovine serum albumin, 40 ng kDNA, drug or DMSO (0.5 μl) and 300 ng K562 cells nuclear extract, the amount that gave 80% decatenation. The enzymatic reaction was carried out at 37° C. and was terminated by the addition of 6 μl of buffer containing 5 mM Tris pH 8.0, 30% w/v sucrose, 0.5% bromophenol blue, and 125 mM EDTA. The resulting mixture was separated by electrophoresis (2 h at 8 V/cm) on an agarose gel prepared from 1.2% w/v agarose and 0.5 μg/ml ethidium bromide in TAE buffer pH 8.0 (40 mM Tris base, 0.114% (v/v) glacial acetic acid, 2 mM EDTA). The DNA in the gel was imaged by its fluorescence on an Alpha Annotech Fluorchem 8900 imaging system equipped with a 365 nm illuminator and a CCD camera. Densitometry scanning of gel photographs was used to obtain the fluorescence intensity of the band corresponding to the DNA minicircles. The percentage inhibition of K562 topoisomerase II catalytic activity at concentrations of 3 and 30 μM was determined using the following equation: % Inhibition=[(1−(Bdrug−Bbackground)/Bdmso]×100, where Bdrug is the band intensity value for the enzymatic reaction sample treated with drug, Bbackground is the band intensity value for sample without the enzyme, and Bdmso is the band intensity value for the enzymatic reaction sample treated with DMSO solvent only.

[4] = test system: human leukemia K562 cells; experiment: K562 cell growth inhibition assay (MTS); format: cell-based; settings: 72 h incubation, read-out: Median growth inhibitory concentration (IC50) of K562 cells
Method: K562 cells were obtained from American Type Culture Collection (Rockville, Md.). These cells were maintained as suspension cultures in alpha minimum essential medium (αMEM) (Gibco BRL, Burlington, Canada) containing 2 mM L-glutamine and supplemented with 10% fetal calf serum (Invitrogen, Burlington, ON, Canada), 20 mM NaHCO3, 20 mM HEPES (Sigma), 100 units/ml penicillin G, and 100 μg/ml streptomycin at pH 7.4 in an atmosphere of 5% CO2 and 95% air at 37° C. For the measurement of growth inhibition, cells in exponential growth were harvested and seeded at 6000 cells/well in 96-well plates (100 μl/well). Drugs were dissolved in DMSO and added to the wells such that the final concentration of DMSO was 0.5% (v/v). After 72 h incubation, 7 μl of 3-(4,5-dimethylthiazol-2-yl)-5-(3-carboxymethoxyphenyl)-2-(4-sulfophenyl)-2H-tetrazolium (MTS) Cell Titer 96® AQueous One Solution (Promega, Md., WI) was added to each well and incubated for a further 3 h. The absorbance was measured in a Molecular Devices (Menlo Park, Calif.) plate reader. The spectrophotometric 96-well plate cell growth inhibition assay measures the ability of the cells to enzymatically reduce MTS. Three replicates were measured at each drug concentration, and the IC50 values and their SEs for growth inhibition were obtained by fitting the absorbance-drug concentration data to a four-parameter logistic equation.

[5] = target: T1, human serum albumin (HSA); experiment: ESI-MS study on covalent labeling of sulfhydryl group of HSA; format: binding; settings: drug with 65 μM HSA, Tris pH 7.5, 5 h, room temperature
Method: The MS drug-HSA protein binding studies were carried out using an Applied Biosystems API 2000 Triple Quadrupole mass spectrometer (Thornhill, Canada) equipped with a syringe pump (Harvade Apparatus, Holliston, Mass.) at a flow rate of 5-10 μl/min. The Analyst software (version 1.4) was used for system control and data acquisition. The ESI source was operated in the positive ion mode with an electrospray voltage of +4.4 kV without capillary heating. MagTran freeware (version 1.02, http://www.geocities.com/SiliconValley/Hills/2679/magtran.html) was used for charge state deconvolution of HSA and drug-HSA covalent adducts.
The reaction of drug and HSA was carried out by mixing drug (or not) in DMSO (11μl, 6 mM) with HSA in 16 mM Tris pH 7.5 buffer (1 ml, 65 μM) for 5 h at room temperature. The reaction mixture was then dialyzed using a dialysis membrane with a 10,000 Da cutoff. The dialyzed mixture (150 μl) was diluted with a solution mixture of water (124 μl), methanol (76 μl), and formic acid (17 μl, 6% v/v). Scanning was 1000-1800 m/z units every 4 s with a step size of 0.10 amu.

T2 sequence (P11388 whole entry): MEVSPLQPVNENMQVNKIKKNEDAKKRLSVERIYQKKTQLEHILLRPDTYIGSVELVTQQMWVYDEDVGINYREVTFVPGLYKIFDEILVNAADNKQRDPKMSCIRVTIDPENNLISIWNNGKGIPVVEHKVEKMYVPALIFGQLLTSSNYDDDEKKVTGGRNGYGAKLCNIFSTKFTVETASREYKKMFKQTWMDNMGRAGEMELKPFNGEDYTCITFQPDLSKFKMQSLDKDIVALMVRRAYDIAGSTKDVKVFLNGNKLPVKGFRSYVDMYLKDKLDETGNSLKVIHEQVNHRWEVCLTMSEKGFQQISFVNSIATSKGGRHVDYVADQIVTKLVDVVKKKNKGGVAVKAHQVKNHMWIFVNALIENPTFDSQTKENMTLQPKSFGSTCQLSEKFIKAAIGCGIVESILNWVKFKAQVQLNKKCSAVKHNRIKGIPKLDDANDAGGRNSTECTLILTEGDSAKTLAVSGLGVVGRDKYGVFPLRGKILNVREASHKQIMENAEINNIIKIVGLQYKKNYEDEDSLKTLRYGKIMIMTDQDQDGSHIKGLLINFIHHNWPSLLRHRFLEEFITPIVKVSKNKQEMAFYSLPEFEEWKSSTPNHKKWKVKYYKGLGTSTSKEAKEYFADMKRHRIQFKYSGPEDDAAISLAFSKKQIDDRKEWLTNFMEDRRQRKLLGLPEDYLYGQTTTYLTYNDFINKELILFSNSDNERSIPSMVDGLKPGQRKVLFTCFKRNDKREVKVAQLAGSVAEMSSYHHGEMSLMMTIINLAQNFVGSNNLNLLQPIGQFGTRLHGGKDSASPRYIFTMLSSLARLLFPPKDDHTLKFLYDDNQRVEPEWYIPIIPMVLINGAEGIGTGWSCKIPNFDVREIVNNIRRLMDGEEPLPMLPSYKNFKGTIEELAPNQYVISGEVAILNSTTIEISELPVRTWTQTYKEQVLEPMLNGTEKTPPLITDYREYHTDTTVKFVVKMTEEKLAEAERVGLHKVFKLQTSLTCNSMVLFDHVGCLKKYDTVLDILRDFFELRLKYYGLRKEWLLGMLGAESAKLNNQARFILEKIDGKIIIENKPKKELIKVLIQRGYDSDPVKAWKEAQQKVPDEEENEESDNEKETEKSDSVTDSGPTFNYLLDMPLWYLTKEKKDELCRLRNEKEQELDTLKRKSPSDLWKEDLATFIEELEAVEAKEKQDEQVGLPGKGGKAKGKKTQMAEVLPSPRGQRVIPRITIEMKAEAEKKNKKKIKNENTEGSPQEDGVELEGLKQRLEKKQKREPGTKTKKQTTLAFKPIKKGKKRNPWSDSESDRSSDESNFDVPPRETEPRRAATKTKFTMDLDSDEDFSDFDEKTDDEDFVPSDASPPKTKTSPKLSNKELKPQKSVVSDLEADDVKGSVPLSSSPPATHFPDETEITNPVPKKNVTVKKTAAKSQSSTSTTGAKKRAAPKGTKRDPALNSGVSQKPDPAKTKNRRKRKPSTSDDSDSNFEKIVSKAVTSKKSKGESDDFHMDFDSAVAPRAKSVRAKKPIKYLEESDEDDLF
T1 sequence (P02768 25-609): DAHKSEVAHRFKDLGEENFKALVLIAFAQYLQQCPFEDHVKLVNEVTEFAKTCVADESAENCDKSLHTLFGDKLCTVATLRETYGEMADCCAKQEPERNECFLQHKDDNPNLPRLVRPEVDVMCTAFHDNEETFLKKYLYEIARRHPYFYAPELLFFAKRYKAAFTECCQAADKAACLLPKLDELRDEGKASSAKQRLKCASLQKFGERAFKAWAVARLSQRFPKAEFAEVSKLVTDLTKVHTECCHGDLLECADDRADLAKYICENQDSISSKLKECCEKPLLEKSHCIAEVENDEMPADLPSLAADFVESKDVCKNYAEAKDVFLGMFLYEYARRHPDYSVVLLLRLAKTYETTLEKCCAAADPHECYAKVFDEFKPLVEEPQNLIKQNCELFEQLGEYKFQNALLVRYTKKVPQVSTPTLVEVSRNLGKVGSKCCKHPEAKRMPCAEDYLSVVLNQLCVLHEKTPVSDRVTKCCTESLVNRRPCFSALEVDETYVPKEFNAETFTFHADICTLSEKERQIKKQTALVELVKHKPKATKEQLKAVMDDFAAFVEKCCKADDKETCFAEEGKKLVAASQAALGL

Row | SMILES | % Inhibition of Thioglo-1 fluorescent labeling of Human serum albumin [3] [%] | % Inhibition of topoisomerase II catalytic activity (human topoisomerase IIα; 3 μM) [%] | % Inhibition of topoisomerase II catalytic activity (human topoisomerase IIα; 30 μM) [%] | IC50 [4] [µM] | Covalent labeling of HSA (ESI-MS peak description) [5] | inhibition at 3 µM (human topoisomerase IIα; 3 μM) [%] | inhibition at 30 µM (human topoisomerase IIα; 30 μM) [%] | IC50 ([4]; Homo sapiens, K562, 72 h) [µM] | melting point [°C] | % Inhibition of Thioglo-1 fluorescent labeling of 10 μM Cysteine [1] [%] | % Inhibition of Thioglo-1 fluorescent labeling of 10 μM Glutathione [2] [%] | % Inhibition of Thioglo-1 fluorescent labeling of K562 Cell homogenate (K562 cell homogenate) [%]
1 | [O-][S+]1CCON=C1c1cc2ccccc2s1 (centres unmarked) [CMPD #9] | 85 | 100 | 100 | 0.7 | Covalent adduct of HSA and Compound 9 |  |  |  |  | 100 | 100 | 95
2 | CCOC(=O)C1=C(c2ccccc2)S(=O)(=O)CCS1(=O)=O [compound 17, ethyl 1,1,4,4-tetraoxo-3-phenyl-5,6-dihydro-1λ^6,4λ^6-dithiine-2carboxylate] |  |  |  |  |  | 100 | 100 | 3 | 190 to 191 |  |  | 

More lines, main results first:

Row | % Inhibition of Thioglo-1 fluorescent labeling of Human serum albumin [3] [%] | % Inhibition of topoisomerase II catalytic activity (human topoisomerase IIα; 3 μM) [%] | % Inhibition of topoisomerase II catalytic activity (human topoisomerase IIα; 30 μM) [%] | IC50 [4] [µM] | Covalent labeling of HSA (ESI-MS peak description) [5] | inhibition at 3 µM (human topoisomerase IIα; 3 μM) [%] | inhibition at 30 µM (human topoisomerase IIα; 30 μM) [%] | IC50 ([4]; Homo sapiens, K562, 72 h) [µM] | melting point [°C] | SMILES | % Inhibition of Thioglo-1 fluorescent labeling of 10 μM Cysteine [1] [%] | % Inhibition of Thioglo-1 fluorescent labeling of 10 μM Glutathione [2] [%] | % Inhibition of Thioglo-1 fluorescent labeling of K562 Cell homogenate (K562 cell homogenate) [%]
3 |  |  |  | 1 |  |  | 100 |  | 154 to 156 | CCOC(=O)C1=C(C(=O)OCC)S(=O)(=O)CCS1(=O)=O [compound 20, 2,3-diethyl 1,1,4,4-tetraoxo-5,6-dihydro-1λ^6,4λ^6-dithiine-2,3-dicarboxylate] |  |  | 
4 |  |  |  |  |  | 100 | 100 | 2.5 | 142 to 145 | CCOC(=O)C1=C(C(F)(F)F)S(=O)(=O)CCS1(=O)=O [compound 24, ethyl 1,1,4,4-tetraoxo-3-(trifluoromethyl)-5,6-dihydro-1λ^6,4λ^6-dithiine-2-carboxylate] |  |  | 
5 |  |  |  |  |  | 100 | 100 | 4 | 217 to 219 | O=C(Nc1ccccc1)C1=C(C(F)(F)F)S(=O)(=O)CCS1(=O)=O [compound 25, 1,1,4,4-tetraoxo-N-phenyl-3-(trifluoromethyl)-5,6-dihydro-1λ^6,4λ^6-dithiine-2-carboxamide] |  |  | 

From patent publication US20120142676A1, “Oxathiazine and dithiine oxides as inhibitors of sulfhydryl-dependent biomolecules” (priority 2010, published 2012)
